Data as given in PubChem BioAssay AID248 (DTP/NCI, 2004).
Several values for one entry are separate records, joined by “and”; a condition that tells them apart may be missing. Identical values can stand only once. Toxic doses and inconclusive results are not listed. No stated cut-off is given here; in the data, active means T/C of 150% or more; inactive means T/C below 125%.

Tested on: L1210 leukemia ip in BDF1 mice, survival T/C
Assay: NCI In Vivo Anticancer Drug Screen. Data for tumor model L1210 Leukemia (intraperitoneal) in B6D2F1 (BDF1) mice
Settings: endpoint: mean survival time, higher = longer survival
In short: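 Read-out is survival time, reported as the treated-group measurement over the vehicle-control measurement.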

[1] = dose: 100.0 mg/kg/injection, schedule: Q01DX001 (ip), vehicle: Klucel (hydroxypropylcellulose) (HPC)
[2] = dose: 200.0 mg/kg/injection, schedule: Q01DX001 (ip), vehicle: Klucel (hydroxypropylcellulose) (HPC)
[3] = dose: 400.0 mg/kg/injection, schedule: Q01DX001 (ip), vehicle: Klucel (hydroxypropylcellulose) (HPC)
[4] = dose: 100.0 mg/kg/injection, schedule: Q04DX003 (ip), vehicle: saline
[5] = dose: 200.0 mg/kg/injection, schedule: Q04DX003 (ip), vehicle: saline
[6] = dose: 400.0 mg/kg/injection, schedule: Q04DX003 (ip), vehicle: saline
[7] = dose: 50.0 mg/kg/injection, schedule: Q01DX009 (ip), vehicle: saline with Tween-80
[8] = dose: 100.0 mg/kg/injection, schedule: Q01DX009 (ip), vehicle: saline with Tween-80
[9] = dose: 200.0 mg/kg/injection, schedule: Q01DX009 (ip), vehicle: saline with Tween-80
[10] = dose: 100.0 mg/kg/injection, schedule: Q01DX009 (ip), vehicle: Klucel (hydroxypropylcellulose) (HPC)
[11] = dose: 100.0 mg/kg/injection, schedule: Q04DX003 (ip), vehicle: Klucel (hydroxypropylcellulose) (HPC)
[12] = dose: 200.0 mg/kg/injection, schedule: Q01DX009 (ip), vehicle: Klucel (hydroxypropylcellulose) (HPC)
[13] = dose: 200.0 mg/kg/injection, schedule: Q04DX003 (ip), vehicle: Klucel (hydroxypropylcellulose) (HPC)
[14] = dose: 400.0 mg/kg/injection, schedule: Q01DX009 (ip), vehicle: Klucel (hydroxypropylcellulose) (HPC)
[15] = dose: 400.0 mg/kg/injection, schedule: Q04DX003 (ip), vehicle: Klucel (hydroxypropylcellulose) (HPC)
[16] = dose: 100.0 mg/kg/injection, schedule: Q01DX001 (ip), vehicle: carboxymethylcellulose (CMC)
[17] = dose: 200.0 mg/kg/injection, schedule: Q01DX001 (ip), vehicle: carboxymethylcellulose (CMC)
[18] = dose: 100.0 mg/kg/injection, schedule: Q01DX001 (ip), vehicle: saline
[19] = dose: 50.0 mg/kg/injection, schedule: Q01DX009 (ip), vehicle: Klucel (hydroxypropylcellulose) (HPC)

Measured: T/C

C=C1C(C(=O)OCC)C1C(=O)OCC (stereo unspecified)
inactive: dose: 50.0 mg/kg/injection, schedule: Q04DX002 (ip), vehicle: saline with Tween-80 98 % of control | dose: 100.0 mg/kg/injection, schedule: Q04DX002 (ip), vehicle: saline with Tween-80 103 % of control | dose: 200.0 mg/kg/injection, schedule: Q04DX002 (ip), vehicle: saline with Tween-80 106 % of control | dose: 400.0 mg/kg/injection, schedule: Q04DX002 (ip), vehicle: saline with Tween-80 98 % of control

COc1ccccc1-n1c(O)c(N=Nc2ccccc2C)c(=O)n(-c2ccccc2)c1=S
inactive: [1] 110 % of control | [2] 96 % of control | [3] 96 % of control

CC1C(C)(C)P(=O)(n2nnc3ccccc32)C1(C)C (stereo unspecified)
inactive: [4] 105 % of control | [5] 97 % of control | [6] 94 % of control

CC(C)N1CSC(=S)N(C(C)C)C1
inactive: dose: 100.0 mg/kg/injection, schedule: Q04DX002 (ip), vehicle: other 89 % of control | dose: 200.0 mg/kg/injection, schedule: Q04DX002 (ip), vehicle: other 100 % of control | dose: 400.0 mg/kg/injection, schedule: Q04DX002 (ip), vehicle: other 107 % of control

CC(C)CCNCC(C)OC(=O)c1ccc([N+](=O)[O-])cc1 (stereo unspecified)
inactive: dose: 75.0 mg/kg/injection, schedule: Q01DX001 (ip), vehicle: other 98 % of control | dose: 150.0 mg/kg/injection, schedule: Q01DX001 (ip), vehicle: other 106 % of control | dose: 300.0 mg/kg/injection, schedule: Q01DX001 (ip), vehicle: other 95 % of control

CC(C)C/C=C/C1CCCCC1 (tested in a mixture with another compound)
inactive: [7] 101 % of control | [8] 93 % of control | [9] 97 % of control

Cc1cccc(C)c1NC(=O)Oc1ccc(C2CCCCC2)cc1
inactive: [10] 101 % of control | [11] 91 % of control | [12] 97 % of control | [13] 93 % of control | [14] 94 % of control | [15] 88 % of control

Cn1ncn(/N=C/c2ccc([N+](=O)[O-])o2)c1=O
inactive: dose: 12.5 mg/kg/injection, schedule: Q01DX009 (ip), vehicle: other 91 % of control | dose: 25.0 mg/kg/injection, schedule: Q01DX009 (ip), vehicle: other 93 % of control | dose: 50.0 mg/kg/injection, schedule: Q01DX009 (ip), vehicle: other 91 % of control | dose: 100.0 mg/kg/injection, schedule: Q01DX009 (ip), vehicle: other 87 % of control | dose: 200.0 mg/kg/injection, schedule: Q01DX009 (ip), vehicle: other 87 % of control

O=C1NN=C2CCCCC12 (stereo unspecified)
inactive: dose: 100.0 mg/kg/injection, schedule: Q04DX003 (ip), vehicle: other 107 % of control | dose: 200.0 mg/kg/injection, schedule: Q04DX003 (ip), vehicle: other 97 % of control | dose: 400.0 mg/kg/injection, schedule: Q04DX003 (ip), vehicle: other 102 % of control

CSc1ccc(C2CCCCC2OS(C)(=O)=O)cc1 (stereo unspecified)
inactive: [11] 95 % of control | [13] 92 % of control | [15] 95 % of control

N#Cc1ccccc1NC(=S)Nc1ccc([N+](=O)[O-])cc1
inactive: dose: 12.5 mg/kg/injection, schedule: Q01DX009 (ip), vehicle: saline with Tween-80 95 % of control | dose: 25.0 mg/kg/injection, schedule: Q01DX009 (ip), vehicle: saline with Tween-80 100 % of control | [7] 95 % of control and 88 % of control

Cc1ccc(S(=O)(=O)OC2C(C)(C)C(=O)C2(C)C)cc1
inactive: [16] 97 % of control | [17] 92 % of control | dose: 400.0 mg/kg/injection, schedule: Q01DX001 (ip), vehicle: carboxymethylcellulose (CMC) 92 % of control

C/C(=C\Nc1cccnc1)C(=O)c1ccc(F)cc1
inactive: [8] 102 % of control | [9] 102 % of control | dose: 400.0 mg/kg/injection, schedule: Q01DX009 (ip), vehicle: saline with Tween-80 98 % of control

CC1(C)N=C(N)N=C(N)N1c1ccc(C#N)cc1
inactive: [18] 100 % of control

O=C(Cn1ccc(=O)[nH]c1=O)c1ccco1
inactive: [4] 102 % of control | [5] 107 % of control | [6] 98 % of control

Cc1ccc(S(=O)(=O)NC(Cc2ccccc2)C(=O)CCl)cc1 (stereo unspecified)
inactive: dose: 100.0 mg/kg/injection, schedule: Q04DX003 (ip), vehicle: saline with Tween-80 92 % of control | dose: 200.0 mg/kg/injection, schedule: Q04DX003 (ip), vehicle: saline with Tween-80 92 % of control

COc1ccc(/C=C(\CCCOC(C)=O)[N+](=O)[O-])cc1OC
inactive: [16] 104 % of control | [17] 101 % of control

CC12CCC(C1)C(C)(C)C2N1C(c2ccccc2)C1c1ccccc1 (stereo unspecified)
inactive: [10] 87 % of control | [12] 87 % of control | [14] 100 % of control

OC1OC(CCl)C(Cl)C(O)C1O (stereo unspecified)
inactive: [4] 106 % of control | [5] 101 % of control | [6] 98 % of control

O=C(c1ccccc1)c1cccc(Cl)c1
inactive: [19] 105 % of control | [18] 98 % of control | [10] 101 % of control | dose: 200.0 mg/kg/injection, schedule: Q01DX001 (ip), vehicle: saline 96 % of control | [12] 100 % of control | dose: 400.0 mg/kg/injection, schedule: Q01DX001 (ip), vehicle: saline 93 % of control

CN(C)c1ccc(/C=N/NC(=O)C2CCCO2)c(Cl)c1 (stereo unspecified)
inactive: [10] 102 % of control | [12] 98 % of control

O=C(c1ccccc1)c1ccccc1
inactive: [19] 96 % of control | dose: 75.0 mg/kg/injection, schedule: Q04DX003 (ip), vehicle: saline 100 % of control | [10] 101 % of control | dose: 150.0 mg/kg/injection, schedule: Q04DX003 (ip), vehicle: saline 100 % of control | [12] 97 % of control | dose: 300.0 mg/kg/injection, schedule: Q04DX003 (ip), vehicle: saline 104 % of control

Nc1ccc2nc(N)nc(N)c2c1
inactive: dose: 37.5 mg/kg/injection, schedule: Q01DX009 (ip), vehicle: Klucel (hydroxypropylcellulose) (HPC) 121 % of control | dose: 65.0 mg/kg/injection, schedule: Q04DX003 (ip), vehicle: Klucel (hydroxypropylcellulose) (HPC) 106 % of control | dose: 75.0 mg/kg/injection, schedule: Q01DX009 (ip), vehicle: Klucel (hydroxypropylcellulose) (HPC) 107 % of control | [11] 112 % of control | dose: 150.0 mg/kg/injection, schedule: Q04DX003 (ip), vehicle: Klucel (hydroxypropylcellulose) (HPC) 112 % of control

CC(C#N)OC(=O)c1ccccc1 (stereo unspecified)
inactive: dose: 8.75 mg/kg/injection, schedule: Q01DX009 (ip), vehicle: acetone 96 % of control | dose: 12.5 mg/kg/injection, schedule: Q01DX001 (ip), vehicle: saline 100 % of control | dose: 17.5 mg/kg/injection, schedule: Q01DX009 (ip), vehicle: acetone 95 % of control | dose: 25.0 mg/kg/injection, schedule: Q01DX001 (ip), vehicle: saline 105 % of control | dose: 35.0 mg/kg/injection, schedule: Q01DX009 (ip), vehicle: acetone 91 % of control | dose: 35.0 mg/kg/injection, schedule: Q04DX003 (ip), vehicle: saline 95 % of control | dose: 50.0 mg/kg/injection, schedule: Q01DX009 (ip), vehicle: acetone 94 % of control

O=[N+]([O-])c1ccc(Oc2cccc(C(F)(F)F)c2)c(Cl)c1
inactive: [1] 94 % of control | [2] 97 % of control | [3] 95 % of control

COc1ccc(OC)c(NC(=S)N/N=C(/C)c2cc(Cl)c(C)cc2O)c1
inactive: dose: 12.5 mg/kg/injection, schedule: Q04DX002 (ip), vehicle: Klucel (hydroxypropylcellulose) (HPC) 112 % of control | dose: 25.0 mg/kg/injection, schedule: Q04DX002 (ip), vehicle: Klucel (hydroxypropylcellulose) (HPC) 97 % of control | dose: 50.0 mg/kg/injection, schedule: Q04DX002 (ip), vehicle: Klucel (hydroxypropylcellulose) (HPC) 97 % of control
